From ChEMBL document CHEMBL3885881, “DrugMatrix”

Organism: Rattus norvegicus
Assay: DrugMatrix - Regimen: Daily Repeat
Format: toxicity, organism-based, Sprague-Dawley
Set-up: regimen Daily Repeat, gender Male, age 6-8 weeks
Settings: in vivo, po, route oral GAVAGE, vehicle .5 % CMC; for ABSOLUTE BASOPHIL / ABSOLUTE EOSINOPHIL / ABSOLUTE LYMPHOCYTE / ABSOLUTE MONOCYTE / ABSOLUTE SEGMENTED NEUTROPHIL / BASOPHIL / EOSINOPHIL / ERYTHROCYTE COUNT / HEMATOCRIT / HEMOGLOBIN / LEUKOCYTE COUNT / LYMPHOCYTE / MEAN CORPUSCULAR HEMOGLOBIN / MEAN CORPUSCULAR HEMOGLOBIN CONCENTRATION / MONOCYTE / NEUTROPHIL / NUCLEATED RED BLOOD CELLS / PLATELET COUNT: tissue Blood; for ALANINE AMINOTRANSFERASE / ALBUMIN / ALKALINE PHOSPHATASE / ASPARTATE AMINOTRANSFERASE / BLOOD UREA NITROGEN / CARBON DIOXIDE / CHLORIDE / CHOLESTEROL / CREATINE PHOSPHOKINASE / CREATININE / GLUCOSE / LACTATE DEHYDROGENASE / LIPASE / PHOSPHORUS / POTASSIUM / SODIUM / TOTAL BILIRUBIN / TOTAL PROTEIN / URIC ACID: tissue Plasma
[1] = 0 mg/kg, 72 h, dose level Control, time 3 day
[2] = 0 mg/kg, 120 h, dose level Control, time 5 day
[3] = 10 mg/kg, 72 h, dose level Low, time 3 day

O=C1C(CC[S+]([O-])c2ccccc2)C(=O)N(c2ccccc2)N1c1ccccc1 (stereo not given) [SULFINPYRAZONE]
ABSOLUTE BASOPHIL [1]: 0 CELLS/uL
ABSOLUTE EOSINOPHIL [1]: 171.33 CELLS/uL
ABSOLUTE LYMPHOCYTE [1]: 13776.5 CELLS/uL
ABSOLUTE MONOCYTE [1]: 180.83 CELLS/uL
ABSOLUTE SEGMENTED NEUTROPHIL [1]: 1121.33 CELLS/uL
BASOPHIL [1]: 0%
EOSINOPHIL [1]: 1%
ERYTHROCYTE COUNT [1]: 5.56 x10E6/uL
HEMATOCRIT [1]: 34.75%
HEMOGLOBIN [1]: 13.68 G/DL
LEUKOCYTE COUNT [1]: 15.25 x10E3/uL
LYMPHOCYTE [1]: 90.17%
MEAN CORPUSCULAR HEMOGLOBIN [1]: 24.6 pg
MEAN CORPUSCULAR HEMOGLOBIN CONCENTRATION [1]: 39.4 G/DL
MONOCYTE [1]: 1.17%
NEUTROPHIL [1]: 7.67%
NUCLEATED RED BLOOD CELLS [1]: 0 /100WBC
PLATELET COUNT [1]: 1342 x10E3/uL
ALANINE AMINOTRANSFERASE [1]: 49.67 u/L
ALBUMIN [1]: 4.15 G/DL
ALKALINE PHOSPHATASE [1]: 346.83 u/L
ASPARTATE AMINOTRANSFERASE [1]: 108.17 u/L
BLOOD UREA NITROGEN [1]: 17.33 mg/dL
CARBON DIOXIDE [1]: 25 mmol/L
CHLORIDE [1]: 100.83 MEQ/L
CHOLESTEROL [1]: 66.83 mg/dL
CREATINE PHOSPHOKINASE [1]: 788 u/L
CREATININE [1]: 0.18 mg/dL
GLUCOSE [1]: 151.67 mg/dL
LACTATE DEHYDROGENASE [1]: 982.5 u/L
LIPASE [1]: 10.33 u/L
PHOSPHORUS [1]: 11.23 mg/dL
POTASSIUM [1]: 6.37 MEQ/L
SODIUM [1]: 141.02 MEQ/L
TOTAL BILIRUBIN [1]: 0.18 mg/dL
TOTAL PROTEIN [1]: 5.9 G/DL
URIC ACID [1]: 1.8 mg/dL
ABSOLUTE BASOPHIL [2]: 0 CELLS/uL
ABSOLUTE EOSINOPHIL [2]: 69 CELLS/uL
ABSOLUTE LYMPHOCYTE [2]: 13632.83 CELLS/uL
ABSOLUTE MONOCYTE [2]: 139.83 CELLS/uL
ABSOLUTE SEGMENTED NEUTROPHIL [2]: 1225 CELLS/uL
BASOPHIL [2]: 0%
EOSINOPHIL [2]: 0.33%
ERYTHROCYTE COUNT [2]: 5.52 x10E6/uL
HEMATOCRIT [2]: 33.98%
HEMOGLOBIN [2]: 13.22 G/DL
LEUKOCYTE COUNT [2]: 15.07 x10E3/uL
LYMPHOCYTE [2]: 90.83%
MEAN CORPUSCULAR HEMOGLOBIN [2]: 23.95 pg
MEAN CORPUSCULAR HEMOGLOBIN CONCENTRATION [2]: 38.9 G/DL
MONOCYTE [2]: 0.83%
NEUTROPHIL [2]: 8%
NUCLEATED RED BLOOD CELLS [2]: 0 /100WBC
PLATELET COUNT [2]: 1196 x10E3/uL
ALANINE AMINOTRANSFERASE [2]: 49.17 u/L
ALBUMIN [2]: 4.2 G/DL
ALKALINE PHOSPHATASE [2]: 352.33 u/L
ASPARTATE AMINOTRANSFERASE [2]: 89.67 u/L
BLOOD UREA NITROGEN [2]: 18 mg/dL
CARBON DIOXIDE [2]: 27.67 mmol/L
CHLORIDE [2]: 101 MEQ/L
CHOLESTEROL [2]: 72.83 mg/dL
CREATINE PHOSPHOKINASE [2]: 417.5 u/L
CREATININE [2]: 0.18 mg/dL
GLUCOSE [2]: 150.5 mg/dL
LACTATE DEHYDROGENASE [2]: 517.33 u/L
LIPASE [2]: 9 u/L
PHOSPHORUS [2]: 11.87 mg/dL
POTASSIUM [2]: 6.57 MEQ/L
SODIUM [2]: 143.62 MEQ/L
TOTAL BILIRUBIN [2]: 0.2 mg/dL
TOTAL PROTEIN [2]: 6.08 G/DL
URIC ACID [2]: 1.45 mg/dL
ABSOLUTE BASOPHIL [3]: 0 CELLS/uL
ABSOLUTE EOSINOPHIL [3]: 153.67 CELLS/uL
ABSOLUTE LYMPHOCYTE [3]: 13327.33 CELLS/uL
ABSOLUTE MONOCYTE [3]: 157.33 CELLS/uL
ABSOLUTE SEGMENTED NEUTROPHIL [3]: 995 CELLS/uL
BASOPHIL [3]: 0%
EOSINOPHIL [3]: 1%
ERYTHROCYTE COUNT [3]: 5.31 x10E6/uL
HEMATOCRIT [3]: 34.03%
HEMOGLOBIN [3]: 13.67 G/DL
LEUKOCYTE COUNT [3]: 14.63 x10E3/uL
LYMPHOCYTE [3]: 91%
MEAN CORPUSCULAR HEMOGLOBIN [3]: 25.73 pg
MEAN CORPUSCULAR HEMOGLOBIN CONCENTRATION [3]: 40.17 G/DL
MONOCYTE [3]: 1%
NEUTROPHIL [3]: 7%
NUCLEATED RED BLOOD CELLS [3]: 0 /100WBC
PLATELET COUNT [3]: 1352.33 x10E3/uL
ALANINE AMINOTRANSFERASE [3]: 52.33 u/L
ALBUMIN [3]: 4.23 G/DL
ALKALINE PHOSPHATASE [3]: 353.33 u/L
ASPARTATE AMINOTRANSFERASE [3]: 105.67 u/L
BLOOD UREA NITROGEN [3]: 15.33 mg/dL
CARBON DIOXIDE [3]: 25.67 mmol/L
CHLORIDE [3]: 100.33 MEQ/L
CHOLESTEROL [3]: 80.33 mg/dL
CREATINE PHOSPHOKINASE [3]: 490.67 u/L
CREATININE [3]: 0.21 mg/dL
GLUCOSE [3]: 150.33 mg/dL
LACTATE DEHYDROGENASE [3]: 722 u/L
LIPASE [3]: 10.33 u/L
PHOSPHORUS [3]: 12.1 mg/dL
POTASSIUM [3]: 6.22 MEQ/L
SODIUM [3]: 143.2 MEQ/L
TOTAL BILIRUBIN [3]: 0.2 mg/dL
TOTAL PROTEIN [3]: 6.03 G/DL
